This note sets out measurements from ChEMBL document CHEMBL1137553, “An expeditious synthesis of tamoxifen, a representative SERM (selective estrogen receptor modulator), via the three-component coupling reaction among aromatic aldehyde, cinnamyltrimethylsilane, and beta-chlorophenetole” (Bioorg Med Chem, 2007).

What is called IC50 is the concentration that inhibits the measured activity by half. A higher IC50 goes with lower potency.

In assay [1] the test system is HL-60. The assay can be described thus: Antiproliferative activity against human HL60 cells assessed as cell viability at 5 ug/ml after 4 hrs by MTT assay. Format: functional. The note with it: HL-60, 4 h, read-out: Activity. On the technique in general: Tetrazolium dyes change colour on reduction, which living cells bring about.
Assay [2] deals with HL-60. The assay can be described thus: Antiproliferative activity against human HL60 cells assessed as cell viability at 10 ug/ml after 4 hrs by MTT assay. Format: functional. To be noted: HL-60, 4 h, read-out: Activity.
In assay [3] the test system is HL-60. The assay can be described thus: Antiproliferative activity against human HL60 cells assessed as cell viability at 20 ug/ml after 4 hrs by MTT assay. The note with it: HL-60, 4 h, read-out: Activity. Format: functional.
Assay [4] concerns HL-60. The assay can be described thus: Growth inhibition of human HL60 cells after 4 hrs by MTT assay. It counts as functional, cell-based. To be noted: HL-60, 4 h.
Assay [5] deals with HL-60. The assay can be described thus: Antiproliferative activity against human HL60 cells assessed as cell viability after 4 hrs by MTT assay. It counts as functional.
The subject of assay [6] is HL-60. The assay can be described thus: Antiproliferative activity against human HL60 cells assessed as cell viability at 1 ug/ml after 4 hrs by MTT assay. Format: functional. The note with it: HL-60, 4 h, read-out: Activity.

Values after ≈ are worked out from the molar mass of the structure shown.

In the case of `CC/C(=C(/c1ccc(Br)cc1)c1ccc(OCCN(C)C)cc1)c1ccccc1`, in the assay on HL-60 [1], the viability at 5 µg/mL was 59.2%. Also, the viability at 10 µg/mL in the assay with HL-60 [2] is 13.2%. Moreover, the viability at 20 µg/mL in the assay on HL-60 [3] was 7.01%. The molecule also displayed an IC50 in the assay with HL-60 [4] of 6 µg/mL (≈ 13.3 µM). Also, in the assay with HL-60 [5], the Activity came out at 100%. The viability at 1 µg/mL in the assay on HL-60 [6] is 99.9%.

Consider `CC/C(=C(/c1ccc(OCCN(C)C)cc1)c1cccc(I)c1)c1ccccc1`, for which the viability at 5 µg/mL in the assay on HL-60 [1] amounted to 104%. In the assay with HL-60 [2], the viability at 10 µg/mL is 97.2%. Also, in the assay with HL-60 [3], the viability at 20 µg/mL amounted to 36%. For the same molecule, in the assay with HL-60 [4], the IC50 amounted to 19 µg/mL (≈ 38.2 µM). In the assay on HL-60 [5], the Activity is given as 100%. For the same molecule, in the assay with HL-60 [6], the viability at 1 µg/mL was 109%.

For the molecule `CC/C(=C(\c1ccccc1)c1ccc(OCCN(C)C)cc1)c1ccccc1` [TAMOXIFEN], in the assay on HL-60 [1], the viability at 5 µg/mL was found to be 53.5%. In addition, the viability at 10 µg/mL in the assay on HL-60 [2] is 15.9%. Moreover, the viability at 20 µg/mL in the assay on HL-60 [3] was 5.45%. Besides, the IC50 with HL-60 [4] was determined as 5.9 µg/mL (≈ 15.9 µM). For the same molecule, in the assay on HL-60 [5], the Activity is 100%. Besides, the viability at 1 µg/mL in the assay on HL-60 [6] is 96.2%.

On to `CC/C(=C(\c1ccc(I)cc1)c1ccc(OCCN2CCCC2)cc1)c1ccccc1` [IDOXIFENE], for which the viability at 5 µg/mL in the assay on HL-60 [1] was determined as 82.7%. Besides, the viability at 10 µg/mL in the assay on HL-60 [2] was determined as 25.5%. Also, the viability at 20 µg/mL in the assay with HL-60 [3] is 8.72%. Further, the IC50 in the assay with HL-60 [4] was determined as 7.7 µg/mL (≈ 14.7 µM). The Activity in the assay on HL-60 [5] stood at 100%. In addition, the viability at 1 µg/mL in the assay with HL-60 [6] was 106%.
